Measured values as given in patent US20230227477A1, “COMPOUNDS FOR SENSING REACTIVE OXYGEN SPECIES AND METHODS FOR USING THE SAME” (WAKE FOREST UNIVERSITY HEALTH SCIENCES, priority 2020, published 2023).

Columns and labels:
HeLa cells = experiment: Imaging hydrogen peroxide in living HeLa cells with compound RAH2115 (confocal); assay type: cell-based, human; conditions: ex: 561 nm, em: 587 nm
Protocol: HeLa (human cervical cancer) cells were grown and maintained appropriately according to the American Type Culture Collection (Manassas, Va.). Dulbecco's Modified Eagle Medium:F12-K (1:1) was supplemented with 10% fetal bovine serum (FBS), 1% penicillin-streptomycin, and 1% L-glutamine (ThermoFisher). Cells were incubated at 37° C. in a 5% CO2 atmosphere and split at 70-80% confluency every 2-3 days.
At 70-80% confluency, HeLa cells were seeded on two 35 mm glass-bottom round plates (MatTek Corporation, Ashland, Mass.) at a density of 200 k cells/mL. After adhering overnight, FBS-free media was aspirated and cells were washed with phosphate buffered saline (1×, pH 7.4). Cells in one dish were then incubated with 10 mM Paraquat (Methyl Viologen) for 4 h. Afterwards, both dishes were washed and incubated with compound RAH2115 (10 μM) for 1 hour. After a final PBS wash, both plates were rehydrated in phenol red-free media for imaging. Both control (absence of paraquat) and experimental (presence of paraquat) plates were imaged: ex: 561 nm, em: 587 nm. […]
An automated cell selection algorithm within the ImageJ software was used to quantify intracellular fluorescence. Cells from both control and experimental groups were subjected to Gaussian smoothing in order to accurately measure fluorescence within cells based on a minimum threshold against background. […]

[1] = Selectivity screen of compound RAH2115 against oxidants, reductants, nucleophiles and salts (turn-on fluorescence); assay type: physicochemical; conditions: RAH2115 10 μM
Source text: Given the longer excitation and emission profile of resorufin, it was hypothesized that compound RAH2115 would provide a better gauge of the overall selectivity and sensitivity of the scaffold towards H2O2 while confirming its potential applications within a biological setting. The high selectivity the scaffold towards H2O2 was confirmed by thoroughly screening compound RAH2115 against various oxidants, reductants, and nucleophiles in PBS buffer (pH 7.4) and measuring the resulting turn-on fluorescence after a 2 h incubation period (See FIG. 4, Graph A).
[…] Next, 1.080 mL of a freshly prepared 111.1 μM compound RAH2115 stock solution was added to 10.80 mL of 1× PBS buffer (pH 7.4) to give a total volume of 11.88 mL. 120 μL of analyte stock solution (PBS buffer alone, hydrogen peroxide, glutathione, glutathione disulfide, sodium nitrite, L-cysteine, L-lysine, L-serine, sodium chloride, sodium bromide, L-homocysteine, sodium sulfide, sodium sulfate, sodium thiosulfate and sodium hypochlorite) was then added to give a final volume of 12 mL, and each reaction was left to stir at 37° C.

[2] = Initial rates of fluorescence intensity of compound RAH2115 vs H2O2 concentration; detection limit; assay type: physicochemical; conditions: Detection Limit=3σ/κ, slope from FIG. 4 Graph B
Protocol: The initial response rate of compound RAH2115 was also verified to be directly proportional to the concentration of H2O2. Specifically, immediately prior to use, 5 mM and 0.5 mM stock solutions of hydrogen peroxide were prepared in freshly degassed 1× PBS buffer (pH 7.4) using reagent grade H2O2 (30%). A 100 μM stock solution of compound RAH2115 was prepared in 200-proof ethanol. […] The plate was inserted into a 96-well plate reader (BioTek SYNERGY-HTX hybrid multi-mode reader, Winooski, Vt.) heated to 37° C., and agitated to ensure homogeneity. Fluorescence measurements were recorded and plotted as the change in initial rates of fluorescence intensity vs hydrogen peroxide concentration. This assay was repeated in triplicate and recorded as the mean+/−STDEV from three experiments.
This finding was deemed to be of great significance as the rate of payload release from the scaffold could then be tuned by varying the amount of H2O2. In addition, this finding also allowed for reaction-based fluorescent probes based off of this design (i.e., compound RAH2115) to be used to accurately quantify the amount of H2O2 in buffered solutions. Indeed, as depicted in FIG. 4, Graph B, when the initial rates of increasing fluorescence intensity of compound RAH2115 were plotted versus hydrogen peroxide concentration, excellent linearity between 0-1 mM was observed (R^2=0.99). […]

CC(C)(Cc1ccccc1B1OC(C)(C)C(C)(C)O1)C(=O)Oc1ccc2nc3ccc(=O)cc-3oc2c1 [compound RAH2115]
fluorescence in live HeLa cells pre-treated with paraquat (in words) (HeLa cells; 10 mM paraquat 4 h, then RAH2115 10 μM 1 hour): strong red fluorescence within cells
fluorescence in live HeLa cells, absence of paraquat (in words) (HeLa cells; RAH2115 10 μM, 1 hour, control without paraquat): no fluorescent cells were observed
increase in relative fluorescence intensity when co-incubated with H2O2 ([1]; 1 mM H2O2, 2 h, vs PBS buffer alone): ~500 fold
increase in fluorescence intensity in the presence of other oxidants, reductants, nucleophiles and salts (in words) ([1]; 2 h, PBS pH 7.4, 37° C.): negligible
fluorescence (ex: 560 nm, em: 585 nm) ([1]; PBS pH 7.4, 37° C., 2 h, (1) PBS Buffer alone): 1.7+/−0.32
fluorescence (ex: 560 nm, em: 585 nm) ([1]; PBS pH 7.4, 37° C., 2 h, (2) 1 mM H2O2): 812.25+/−89.32
fluorescence (ex: 560 nm, em: 585 nm) ([1]; PBS pH 7.4, 37° C., 2 h, (3) 1 mM glutathione): 43.65+/−4.24
fluorescence (ex: 560 nm, em: 585 nm) ([1]; PBS pH 7.4, 37° C., 2 h, (4) 1 mM glutathione disulfide): 29.87+/−0.96
fluorescence (ex: 560 nm, em: 585 nm) ([1]; PBS pH 7.4, 37° C., 2 h, (5) 1 mM NaNO2): 47.10+/−11.06
fluorescence (ex: 560 nm, em: 585 nm) ([1]; PBS pH 7.4, 37° C., 2 h, (6) 1 mM L-cysteine): 2.63+/−0.13
fluorescence (ex: 560 nm, em: 585 nm) ([1]; PBS pH 7.4, 37° C., 2 h, (7) 1 mM L-lysine): 3.31+/−0.61
fluorescence (ex: 560 nm, em: 585 nm) ([1]; PBS pH 7.4, 37° C., 2 h, (8) 1 mM L-serine): 1.70+/−0.13
fluorescence (ex: 560 nm, em: 585 nm) ([1]; PBS pH 7.4, 37° C., 2 h, (9) 1 mM NaCl): 40.71+/−1.33
fluorescence (ex: 560 nm, em: 585 nm) ([1]; PBS pH 7.4, 37° C., 2 h, (10) 1 mM NaBr): 39.56+/−0.02
fluorescence (ex: 560 nm, em: 585 nm) ([1]; PBS pH 7.4, 37° C., 2 h, (11) 1 mM L-homocysteine): 74.32+/−5.27
fluorescence (ex: 560 nm, em: 585 nm) ([1]; PBS pH 7.4, 37° C., 2 h, (12) 100 mM Na2S): 46.97+/−1.47
fluorescence (ex: 560 nm, em: 585 nm) ([1]; PBS pH 7.4, 37° C., 2 h, (13) 1 mM sodium sulfate): 38.01+/−2.86
fluorescence (ex: 560 nm, em: 585 nm) ([1]; PBS pH 7.4, 37° C., 2 h, (14) 1 mM sodium thiosulfate): 1.72+/−0.22
fluorescence (ex: 560 nm, em: 585 nm) ([1]; PBS pH 7.4, 37° C., 2 h, (15) 1 mM sodium hypochlorite): 16.75+/−1.09
detection limit for H2O2 [2]: 1.5 µM
